Measured values: the supplement of paper PMC10307832

Columns and labels:
Assay in all cases: relative viability (nuclei count vs DMSO), 5 days (fraction); higher = more cells survive
[1] = compound: CNC(=O)c1cc(Oc2ccc(NC(=O)Nc3ccc(Cl)c(C(F)(F)F)c3)cc2)ccn1 [Sorafenib] + CC1(C)CCC(c2ccc(Cl)cc2)=C(CN2CCN(c3ccc(C(=O)NS(=O)(=O)c4ccc(N[C@H](CCN5CCOCC5)CSc5ccccc5)c(S(=O)(=O)C(F)(F)F)c4)cc3)CC2)C1 [Navitoclax] (partner 0.5 µM)
Method in brief: (§1)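 Relative viability divides the nuclei count in treated wells by that in vehicle wells. Lung cancer cell lines were seeded in 1536-well plates, dosed by pin tool the next day, and fixed and stained after 5 days in one step with final 0.05% Triton X-100, 1% formaldehyde and 1 ug/ml Hoechst. Dosing was a single drug or a fixed anchor-drug dose plus five library-drug doses (not always all listed) in √10 steps, and values are medians of duplicate plates imaged at 4×.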

[2] = compound: CNC(=O)c1cc(Oc2ccc(NC(=O)Nc3ccc(Cl)c(C(F)(F)F)c3)cc2)ccn1 [Sorafenib] + Cc1nc(NC(=O)N2CCC[C@H]2C(N)=O)sc1-c1ccnc(C(C)(C)C(F)(F)F)c1 [Alpelisib] (partner 2 µM)
Method in brief: as §1

[3] = compound: CNC(=O)c1cc(Oc2ccc(NC(=O)Nc3ccc(Cl)c(C(F)(F)F)c3)cc2)ccn1 [Sorafenib] + CS(=O)(=O)CCNCc1ccc(-c2ccc3ncnc(Nc4ccc(OCc5cccc(F)c5)c(Cl)c4)c3c2)o1 [Lapatinib] (partner 2 µM)
Method in brief: as §1

[4] = compound: CNC(=O)c1cc(Oc2ccc(NC(=O)Nc3ccc(Cl)c(C(F)(F)F)c3)cc2)ccn1 [Sorafenib] + COc1cc2c(Oc3ccc(NC(=O)C4(C(=O)Nc5ccc(F)cc5)CC4)cc3F)ccnc2cc1OCCCN1CCOCC1 [Foretinib] (partner 0.25 µM)
Method in brief: as §1

[5] = compound: CNC(=O)c1cc(Oc2ccc(NC(=O)Nc3ccc(Cl)c(C(F)(F)F)c3)cc2)ccn1 [Sorafenib] + Nc1ncn([C@H]2C[C@H](O)[C@@H](CO)O2)c(=O)n1 [Decitabine] (partner 2 µM)
Method in brief: as §1

Cell Line	relative viability ([1]; first compound 0.08 µM)	relative viability ([1]; first compound 0.253 µM)	relative viability ([1]; first compound 2.53 µM)	relative viability ([1]; first compound 8 µM)	relative viability ([2]; first compound 0.08 µM)	relative viability ([2]; first compound 0.253 µM)	relative viability ([2]; first compound 2.53 µM)	relative viability ([3]; first compound 0.08 µM)	relative viability ([3]; first compound 0.253 µM)	relative viability ([3]; first compound 8 µM)	relative viability ([4]; first compound 0.08 µM)	relative viability ([4]; first compound 2.53 µM)	relative viability ([4]; first compound 8 µM)	relative viability ([5]; first compound 0.08 µM)	relative viability ([5]; first compound 0.253 µM)	relative viability ([5]; first compound 2.53 µM)	relative viability ([5]; first compound 8 µM)	relative viability ([2]; first compound 8 µM)	relative viability ([3]; first compound 2.53 µM)	relative viability ([4]; first compound 0.253 µM)
201T	1.19	1.24	1.27	1.18	1	1.05	1.13	1.06	0.991	1.03	1.23	1.11	0.884	0.854	0.816	0.867	0.879			
A-427	0.946	0.917	0.985	0.563	1.08	1.07	1.06	1.04	0.948	1.06	1.24	0.94	0.754	0.598	0.528		0.532	0.925	1.01	0.989
ABC-1					1.01	0.945	1.11	1.25	1.19	0.726	1.06	1.38	0.392	1.23		0.823	1	1.03	1.23	1.11
BEN	0.09	0.0558	0.0776	0.0641	1.1	0.889	0.906	0.857	0.675	0.614	0.755	0.811	0.526	0.746	0.726		0.461	0.798	0.782	0.518
CAL-12T	1.32	1.19	1.06	0.64	1.18	1.09	0.971	0.768	0.685	0.682	1.39	1.03	0.868					0.705	0.724	1.05
ChaGo-K-1	1.23	0.866	1.11	0.576							0.961	0.9		0.532	0.537	0.51	0.471			0.965
HCC-44		0.92	1.03	0.909	0.833	0.785	0.793	0.926	0.919	0.812					0.862	0.886	0.866	0.649	0.949	
IA-LM	0.579	0.385	0.488	0.438	0.714	0.547	0.431	0.491	0.358	0.446		0.61	0.757					0.442	0.456	0.624
LCLC-103H					1.06	0.991	0.893				0.793	0.813	0.882	0.701	0.774	0.771	0.698	1.18		0.794
NCI-H358					1.06	1.12	0.934	0.453	0.45	0.519	0.786		0.489	0.224	0.222	0.217	0.121	0.337	0.558	0.723
NCI-H441	0.488	0.431	0.471	0.417	0.683	0.522	0.5				1.11	0.957	0.782	0.23	0.146	0.207	0.277	0.538		
NCI-H522														0.645	0.686	0.657	0.648			
NCI-H650					1.31	0.96	0.952	0.986	0.855	0.611	1.02	0.942	0.857	0.343	0.295	0.34	0.278	0.963	0.946	0.863
NCI-H661					0.949	0.478	0.596	0.595	0.509	0.507	1.03		0.701	0.57	0.503	0.531	0.356	0.365	0.446	0.986
NCI-H1563					0.903	1	0.894	1.01	0.92	0.671	0.992	0.943	0.577					0.728	0.884	0.929
NCI-H1650	1.2	1.1	1.29	1.29				0.96	0.776	0.224	1.43	1.32	0.365	0.443	0.61	0.49	0.439		0.787	1.24
NCI-H1703	1.03	0.319	0.215	0.148	0.301	0.176	0.189	0.716	0.435	0.221	0.384	0.298	0.278					0.156	0.28	0.283
NCI-H1792	0.671	0.51	0.585	0.544	0.704	0.622	0.657	0.948	0.811	0.879				0.507	0.492	0.489	0.456	0.664	0.936	
NCI-H2228	0.784	0.706	0.828	0.477	0.863	0.753	0.694	1.23	0.936	0.627	0.993	0.819	0.543					0.64	0.985	0.714
NCI-H2342											1	0.914	0.568	0.778	0.676	0.716	0.712			1
SW 900											1.2	0.782	0.604	0.397	0.56	0.418	0.475			0.888
